Broadly, the IC50 is the concentration at which inhibition is half-maximal. One may read the ED50 as the midpoint of the dose-response relation.

The source of these data is patent US5240946A, “((2-(amino-3,4-dioxo-1-cyclobuten-1-yl)amino)alkyl)-acid derivatives” (American Home Products Corporation, priority 1992, dated 1993).

In test [1] the target is NMDA receptors. As to the kind of experiment: (3H)CPP binding displacement in rat brain homogenate. Particulars: for IC50: (3H)CPP 8 nM, rat brain homogenate, 23° C. The method, then:
It was determined that the compounds of this invention are competitive NMDA antagonists by determining their ability to inhibit binding of 3-(2-carboxypiperazinyl-4-yl)propyl-1-phosphonic acid (CPP), a known competitive NMDA antagonist, at NMDA receptors in rat brain homogenate. In a manner similar to the procedure of Murphy et al., J. Pharmacol. Exp. Therap. 240 (3) 778 (1987), rat brain homogenates from which endogenous glutamate had been removed were incubated with (3H)CPP (8 nM), the compound being tested and then buffer each for 15 minutes at 23° C. to obtain a final volume of 2 milliliters. The amount of radio ligand displaced by the test compound is expressed as a percentile of the radio ligand displaced by NMDA. The inhibitory concentration of test compound that will displace 50% of the labeled CPP is determined from dose-responseevaluations.
(§1) Where the displacement of CPP binding is expressed as a percentage, it is at the μM concentration given at the concentration in the parenthesis. Similarly, where percent inhibition of lethality at dose in parenthesis.

For test [2], the system named is male Swiss-albino mice (CD-1 strain), NMDA-induced lethality. Briefly: NMDA induced lethality in mice (survival). Particulars: for ED50: Mus musculus, 0.5 h, mice pretreated 30 min before NMDA 195 mg/kg i.p., observed 30 min; for percent inhibition of lethality: NMDA 195 mg/kg i.p. The format is in vivo, mouse. The method, then:
(§2) The mice were then observed for 30 minutes, noting the latency of onset of generalized myoclonus (uncontrollable hind leg scratching of limbs and/or torso muscle jerking with loss of righting reflex) and death. From the latter, the ED50 for survival is determined. In this standard experimental test procedure, the specific compounds tested and their activity, which representatively establish the activity for all the compounds herein, is presented in the following Table.
as §1

Test [3] has as its system male Swiss-albino mice (CD-1 strain), generalized myoclonus. Briefly: NMDA-induced generalized myoclonus in mice. The format is in vivo. The settings on record: Mus musculus, ip, read-out: ED90 dose for generalized myoclonus. The method, then:
as §2

The test system of test [4] is ischemic brain damage in gerbils. Particulars: Boast et al., Brain Research 1988; cited from earlier work.
The test system of test [5] is NMDA-induced convulsions in mice. The settings on record: Lehmann et al. 1987; cited from earlier work.
Test [6] concerns Parkinsonian-like symptoms induced by MPTP in rats. The settings on record: Turski et al., Nature 1991; cited from earlier work.
The mark [7] stands for this setting: at dose in parenthesis 5 (in mg/kg).

In turn, `O=c1c2c(c1=O)N(CCCP(=O)(O)O)CCCN2` [9(b), [3-(8,9-dioxo-2,6-diazabicyclo[5.2.0]non-1(7)-en-2-yl)propyl]phosphonic acid] had a 50% inhibitory concentration (IC50) in test [1] of over 1 µM. The median effective dose (ED50) in test [2] is over 10 mg/kg.

`Nc1c(NCCCP(=O)(O)O)c(=O)c1=O` [4(b), [3-[(2-amino-3,4-dioxo-1-cyclobuten-1-yl)amino]propyl]phosphonic acid]: the IC50 in test [1] was determined as 2.59 µM. The ED50 in test [2] was over 100 mg/kg. In the case of `Nc1c(NCC(=O)O)c(=O)c1=O` [1(b), N-(2-amino-3,4-dioxo-1-cyclobutenyl)glycine], the ED50 in test [2] was over 100 mg/kg. Regarding `O=C(O)CN1CCCNc2c1c(=O)c2=O` [Example 10, 8,9-Dioxo-2,6-diazabicyclo[5.2.0]non-1(7)-ene-2-acetic acid], in test [1], the IC50 was 0.55 µM. Also, in test [2], the 50% effective dose (ED50) is over 20 mg/kg.

On to `CN(CP(=O)(O)O)c1c(N)c(=O)c1=O` [6(a), [[(2-amino-3,4-dioxo-1-cyclobuten-1-yl)methylamino]methyl]phosphonic acid], for which the IC50 in test [1] is over 10 µM. For the molecule `CN[C@H](CC(=O)O)C(=O)O` [NMDA, N-methyl-D-aspartic acid], the ED90 in test [3] came to 195 mg/kg. As to `CN(CCP(=O)(O)O)c1c(N)c(=O)c1=O` [Example 6, [2-[(2-Amino-3,4-dioxo-1-cyclobuten-1-yl)methylamino]ethyl]phosphonic acid], the 50% inhibitory concentration (IC50) in test [1] turned out to be 1 µM. Moreover, in test [2] (at dose in parenthesis 50 (in mg/kg)), the “percent inhibition of lethality” value was found to be 50%. Regarding `Nc1c(NCCP(=O)(O)O)c(=O)c1=O` [Example 4, [2-[(2-Amino-3,4-dioxo-1-cyclobuten-1-yl)amino]ethyl]phosphonic acid], in test [1], the IC50 came out at 0.471 µM. For `O=C(O)C1CN(CCCP(=O)(O)O)CCN1` (stereo not shown) [CPP, 4-(3-phosphonopropyl)-2-piperazinecarboxylic acid], the “prevention of ischemic brain damage” value in test [4] was “shown to prevent ischemic brain damage in gerbils”. Moreover, the “prevention of NMDA-induced convulsions” value in test [5] was “NMDA-induced convulsions have been prevented by CPP in mice”. Besides, in test [6], the “prevention of Parkinsonian-like symptoms induced by MPTP” value is on record as “shown to prevent the Parkinsonian-like symptoms induced by MPTP”. As to `O=c1c2c(c1=O)N(CCP(=O)(O)O)CCCCN2` [Example 12, [2-(9,10-Dioxo-2,7-diazabicyclo[6.2.0]dec-1(8)-en-2-yl)ethyl]phosphonic acid], in test [1], the IC50 was determined as 0.041 µM. For the same molecule, in test [2] (setting [7]), the “percent inhibition of lethality” value is 80%. In test [1], `O=C(O)CCNc1c(NCc2ccccc2)c(=O)c1=O` [2(b), 3-[[3,4-dioxo-2[(phenylmethyl)amino]-1-cyclobutenyl]amino]propanoic acid] came in with a half-maximal inhibitory concentration (IC50) of over 100 µM. Moreover, in test [2], the 50% effective dose (ED50) was over 100 mg/kg. In the same order, the values of `O=C(O)CCN1CCCNc2c1c(=O)c2=O` [10(a), 3-(8,9-dioxo-2,6-diazabicyclo[5.2.0]non-1(7)-en-2-yl)propanoic acid] are 0.34 µM and over 20 mg/kg.

Consider `Nc1c(NCP(=O)(O)O)c(=O)c1=O` [4(a), [[(2-amino-3,4-dioxo-1-cyclobutenyl)amino]methyl]phosphonic acid], for which the half-maximal inhibitory concentration (IC50) in test [1] is over 10 µM.

In the case of `O=c1c2c(c1=O)N(C/C=C/P(=O)(O)O)CCCN2` [9(c), [(E)-3-(8,9-dioxo-2,6-diazabicyclo[5.2.0]non-1(7)-en-2-yl)-1-propenyl]phosphonic acid], the half-inhibitory concentration (IC50) in test [1] was over 10 µM. The ED50 in test [2] is over 5 mg/kg. As to `Nc1c(NCCCCP(=O)(O)O)c(=O)c1=O` [4(c), [4-[(2-amino-3,4-dioxo-1-cyclobuten-1-yl)amino]butyl]phosphonic acid], the “displacement of CPP binding” value in test [1] (at 10 μM) stood at 68%. Also, the median effective dose (ED50) in test [2] is over 30 mg/kg. For the molecule `O=c1c2c(c1=O)N(CCP(=O)(O)O)CC(O)CN2` (stereo not shown) [Example 9, [2-(4-hydroxy-8,9-dioxo-2,6-diazabicyclo[5.2.0]non-1(7)-en-2-yl)ethyl]phosphonic acid], the IC50 in test [1] was 0.019 µM. Moreover, in test [2], the median effective dose (ED50) was determined as 1.8 mg/kg. In the same order, the values of `O=c1c2c(c1=O)N(Cc1nnn[nH]1)CCCN2` [Example 11, 2-[(1H-Tetrazol-5-yl)methyl]-2,6-diazabicyclo[5.2.0]non-1(7)-ene-8,9-dione] are 0.038 µM and over 10 mg/kg. Take `Nc1c(NC/C=C/CP(=O)(O)O)c(=O)c1=O` [Example 5, [(E)-4-[(2-Amino-3,4-dioxo-1-cyclobuten-1-yl)amino]-2-butenyl]phosphonic acid]: the “displacement of CPP binding” value in test [1] (at 10 μM) is listed as 52%. The ED50 in test [2] is over 30 mg/kg. For `Nc1c(N(CC(=O)O)Cc2ccccc2)c(=O)c1=O` [3(b), N-(2-amino-3,4-dioxo-1-cyclobutenyl)-N-(phenylmethyl)glycine], in test [1] (at 100 μM), the “displacement of CPP binding” value is given as 50%. In test [2], the ED50 was over 100 mg/kg. As to `Nc1c(NCCn2oc(=O)[nH]c2=O)c(=O)c1=O` [Example 2, 2-[2-[(2-Amino-3,4-dioxo-1-cyclobuten-1-yl)amino]ethyl]-1,2,4-oxadiazolidine-3,5-dione], in test [1], the concentration for half-maximal inhibition (IC50) is 5.2 µM. Further, the ED50 in test [2] is over 100 mg/kg. Regarding `Nc1c(NCCC(=O)O)c(=O)c1=O` [Example 1, N-(2-Amino-3,4-dioxo-1-cyclobuten-1-yl)beta-alanine], the ED50 in test [2] was over 100 mg/kg. As to `C=CCN(CC(=O)O)c1c(N)c(=O)c1=O` [Example 3, N-(2-Amino-3,4-dioxo-1-cyclobuten-1-yl)-N-(2-propenyl)glycine], the IC50 in test [1] is 10.5 µM. In addition, the median effective dose (ED50) in test [2] is over 100 mg/kg. In the same order, the values of `C=C(C)CN(CC(=O)O)c1c(N)c(=O)c1=O` [3(a), N-(2-amino-3,4-dioxo-1-cyclobutenyl)-N-(2-methyl-2-propenyl)glycine] are 30 µM and over 100 mg/kg. In the same order, the values of `CCOC(=O)CNc1c(N)c(=O)c1=O` [1(a), N-(2-amino-3,4-dioxo-1-cyclobutenyl)glycine ethyl ester] are 190 µM and over 100 mg/kg. For `O=c1c2c(c1=O)N(CCP(=O)(O)O)CCN2` [Example 7, [2-(7,8-Dioxo-2,5-diazabicyclo[4.2.0]oct-1(6)-en-2-yl)ethyl]phosphonic acid], in that order: 0.092 µM and 6.2 mg/kg. For the molecule `O=c1c2c(c1=O)N(CCP(=O)(O)O)CCCN2` [Example 8, [2-(8,9-Dioxo-2,6-diazabicyclo[5.2.0]non-1(7)-en-2-yl)ethyl]phosphonic acid], the IC50 in test [1] was found to be 0.03 µM. The ED50 in test [2] turned out to be 2.1 mg/kg. As for `O=c1c2c(c1=O)N(CCc1nnn[nH]1)CCCN2` [11(a), 2-[2-(1H-tetrazol-5-yl)ethyl]-2,6-diazabicyclo[5.2.0]non-1(7)-ene-8,9-dione], the “displacement of CPP binding” value in test [1] (at 10 μM) is listed as 40%. The ED50 in test [2] was over 5 mg/kg.

Take `CNc1c(NCCC(=O)O)c(=O)c1=O` [2(a), N-[2-(methylamino)-3,4-dioxo-1-cyclobutenyl]beta-alanine]: in test [1], the concentration for half-maximal inhibition (IC50) was 19.6 µM. In addition, the 50% effective dose (ED50) in test [2] was over 100 mg/kg. In the same order, the values of `Nc1c(NCCCC(=O)O)c(=O)c1=O` [1(c), 4-[(2-amino-3,4-dioxo-1-cyclobutenyl)amino]butanoic acid] are 10.2 µM and over 100 mg/kg.

Regarding `CC1(C)CNc2c(c(=O)c2=O)N(CCP(=O)(O)O)C1` [9(a), [2-(4,4-dimethyl-8,9-dioxo-2,6-diazabicyclo[5.2.0]non-1(7)-en-2-yl)ethyl]phosphonic acid], the half-maximal inhibitory concentration (IC50) in test [1] was 0.28 µM. Besides, in test [2] (setting [7]), the “percent inhibition of lethality” value stood at 50%.
